Test results: PubChem BioAssay AID846 (PCMD, 2007)
Inconclusive results are not listed. Calls of active or inactive are those of the source. No rule for the calls is given here.

Molecular target: Coagulation factor XI (Homo sapiens) (UniProt P03951)
Assay: factor XIa inhibitor concentration-response – biochemical, hits from 1536-well screen, dose response (AID 846)
Settings: purified human plasma factor XIa, fluorogenic AMC substrate, 384-well, 2 h

Chain of Coagulation factor XI (Homo sapiens) (P03951 19-387 limits assumed): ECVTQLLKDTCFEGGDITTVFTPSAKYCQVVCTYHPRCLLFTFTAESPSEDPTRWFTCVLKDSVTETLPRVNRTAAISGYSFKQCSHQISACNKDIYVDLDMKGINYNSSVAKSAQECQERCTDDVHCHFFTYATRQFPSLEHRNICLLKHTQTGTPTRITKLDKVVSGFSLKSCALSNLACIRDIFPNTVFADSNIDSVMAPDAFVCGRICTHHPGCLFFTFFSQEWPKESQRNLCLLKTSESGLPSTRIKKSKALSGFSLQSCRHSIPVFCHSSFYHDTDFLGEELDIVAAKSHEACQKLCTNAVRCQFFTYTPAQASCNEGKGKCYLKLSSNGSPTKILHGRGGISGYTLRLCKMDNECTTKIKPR
Chain of Coagulation factor XI (Homo sapiens) (P03951 388-625 limits assumed): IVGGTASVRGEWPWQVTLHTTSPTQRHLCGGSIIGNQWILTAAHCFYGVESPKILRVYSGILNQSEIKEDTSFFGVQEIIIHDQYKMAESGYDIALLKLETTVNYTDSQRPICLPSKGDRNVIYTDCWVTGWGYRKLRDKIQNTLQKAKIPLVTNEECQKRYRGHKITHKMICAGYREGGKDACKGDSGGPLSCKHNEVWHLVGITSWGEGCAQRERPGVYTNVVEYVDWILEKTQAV

| SMILES | IC50 |
| --- | --- |
| CCc1ccccc1N1C(=O)CC(=O)NC1=O | > 50 µM (inactive) |
| C=CCOC(=O)C1=C(C)Nc2[nH]c(=O)[nH]c(=O)c2C1c1ccccc1 (stereo not drawn) | > 50 µM (inactive) |
| Oc1ccc(/C=N/Nc2nc(-c3cccnc3)nc3ccccc23)c(O)c1 | > 50 µM (inactive) |
| Brc1cccc(/C=N/Nc2nn[nH]n2)c1 | > 50 µM (inactive) |
| COc1cc(/C=N/Nc2cc(C)nc(NS(=O)(=O)c3ccccc3)n2)ccc1O | > 50 µM (inactive) |
| Cc1cccc(NC(=O)c2cc(N3C(=O)CCC3=O)ccc2Cl)n1 | > 50 µM (inactive) |
| O=C1CC(Sc2ccc(Cl)cc2)C(=O)N1c1ccc2c(c1)OCCO2 (stereo not drawn) | > 50 µM (inactive) |
| O=C1CC(N2CCC(c3nc4ccccc4o3)CC2)C(=O)N1c1ccc(Cl)c(C(F)(F)F)c1 (stereo not drawn) | > 50 µM (inactive) |
